According to paper PMC12598805, “Crystal Structure–Activity Relationship of Some MeO Phenylacrylonitriles: Dual Antimicrobial–Cytotoxic Effects and in Silico Perspectives” (ChemistryOpen, 2025):
pIC50: −log10 of the molar value. Values after ≈ are worked out from the molar mass of the structure shown.

Legend:
[1] = system: Staphylococcus aureus (ATCC 29213); assay: Agar diffusion, zone of inhibition; type: cell-based; conditions: S.aureus, compounds at 50 mg mL^−1; for zone of inhibition at 50 mg/mL: Staphylococcus aureus, ATCC29213
Source text: The antibacterial and antifungal activities were reported utilizing the method described by the Clinical & Laboratory Standards Institute.^[ [31], [32] ^] Agar diffusion method was used to determine the antimicrobial activity of the synthesized substances. The media used were mueller hinton agar (MHA) for bacteria and sabouraud‐dextrose agar (SDA) for fungi (Merck), as recommended by the manufacturer.
The synthesized compounds were initially investigated for their antimicrobial activity to elucidate the potential therapeutic utility against various pathogenic microbes using the agar plate diffusion method. The compounds were tested at a concentration of 50 mg mL^−1, and the antibiotics (ampicillin, kanamycin, and amphotericin B) were used at 5 mg mL^−1. […] K.pneumoniae and B.cereus were resistant to ampicillin, while they were susceptible to kanamycin with inhibition values of 30 and 26 mm, respectively. No antimicrobial activity of the compounds was observed against E.faecalis, S.typhimurium, K.pneumoniae, and for the fungus compared to Amphotericin B (20 mm). […]
Staphylococcus aureus (ATCC 29213) […]
ATCC: American Type Culture Collection; NRRL: Northern Regional Research Laboratory The compounds 2(a-c) obtained could only be completely solubilised with dimethyl sulphoxide (DMSO) and the highest possible stock solutions of 50 mg.mL-1 were prepared. To these wells 50 μl of the previously prepared substances were transferred using sterile micropipette tips. For comparison, Ampicillin and kanamycin antibiotics for bacteria and Amphotericin B antibiotics for fungus were used as positive controls and DMSO was used as negative control. The prepared petri plates were kept at +4°C for about 1 hour and then the bacterial cultures were incubated at 37°C for 18-24 hours and mould cultures at 27-30°C for 48-72 hours. The zones formed were measured millimetrically with callipers. The experiments were performed with three repetitions. […]

[2] = system: Micrococcus luteus (NRRL-B-1018); assay: Broth microdilution MIC; type: cell-based; conditions: NRRLB1018, M.luteus
Procedure: Micrococcus luteus (NRRL-B-1018) […]
ATCC: American Type Culture Collection; NRRL: Northern Regional Research Laboratory The compounds 2(a-c) obtained could only be completely solubilised with dimethyl sulphoxide (DMSO) and the highest possible stock solutions of 50 mg.mL-1 were prepared. […]
3.1. Determination of Minimum Inhibition Concentration (MIC)
The minimum inhibition concentration (MIC) values of the compounds 2(a-c) against the test bacteria used in the study were determined according to the broth microdilution method.[1-2] MHB or SDB was used as test medium and bacterial and yeast suspensions were prepared at 0.5 Mc Farland concentration for each test bacteria. Double layer serial dilutions were prepared in "U" type 96-well microtiter plates. Medium+bacteria suspensions containing only medium in the first row, medium+bacteria in the second row and the final concentrations of the synthesised substances in the other rows between 25 mg.mL-1 and […] were added to the wells with a final volume of 200
μL. Ampicillin, Kanamycin and Amphotericin B standard antibiotics were used as positive controls.
Bacteria were incubated at 37±0.1 °C and C. albicans at 30±0.1 °C for 24-48 hours and the lowest concentration without growth was determined as MIC. Tests were performed in two parallel runs and mean values were given as a result. […]

[3] = Cytotoxicity on healthy cells, CCK8 cell viability; type: cell-based, mouse; conditions: mouse, L929 mouse fibroblast cells, read-out: Cytotoxic activity IC50; for IC50 at 24 h: L929, 24 h; for IC50 at 48 h: L929, 48 h
Source text: (§1) We investigated the cytotoxic effects of acrylonitrile derivatives 2(a–c) on human lung carcinoma (A549, CCL‐185) cells purchased from American Culture Collection and human breast carcinoma (MCF‐7) cells purchased from Republic of Turkey Ministry of Agriculture and Forestry Şap Institute, (HUKUK, 00092502), In addition, mouse fibroblast cells (L929, CCL‐1) purchased from American Culture Collection were used to observe the effects of the compounds on healthy cells. In 25 T Flask, A549 cells were grown in dulbecco's modified eagle's medium, MCF‐7, and L929 cells were grown in eagle's minimum essential medium (EMEM), 10% fetal bovine serum and 1% Penicillin‐Streptomycin at 37 °C in a 5% CO2 and 100% humidified incubator. Cell proliferation was checked every day. Cells were taken into the experiment when the cell density reached 70% to 80%. (See Supporting Information for experimental preparation of biological studies).
(§2) The compounds 2a, 2b, and 2c were dissolved in 99.8% Dimethyl sulfoxide (DMSO) respectively, as
(§3) 10 mM main stock. To prepare the doses of acrylonitrile compounds used in the experiment to be
(§4) applied to the cells, five different concentrations of 31.25; 62.5; 125; 250 and 500 μM were prepared
(§5) by diluting the main stock solutions (10 mM) with the medium selected according to the cells. 5-
(§6) Fluorouracil (5-FU) was selected as a positive control in the study. After the 5-FU main stock solution
(§7) was dissolved with DMSO to be 10 mM, the concentrations to be used were diluted with the selected
(§8) media and made ready for the experimental plan. The concentrations used for 5-FU were prepared in
(§9) the same doses used for acrylonitrile derivatives. For the negative control group, groups containing
(§10) only media and no substance were used. Prepared acrylonitrile compounds and 5-FU concentrations
(§11) were added to the wells in three replicates for each dose, and their effects on cell viability at 24 and 48
(§12) Trypan blue solution (Gibco, 1525061) was used to distinguish between living and dead cells in the
(§13) study. Trypan blue passes uncontrollably through the membrane of dead cells that have lost their cell
(§14) membrane integrity and stains the cell blue. Living cells, on the other hand, are not stained because
(§15) Live cell counts were performed using trypan blue using a
(§16) cell counter (Logos Luna II).
(§17) In order to detach the cells adhering to the flasks from the bottom, 500 μL of 0.25% Trypsin-EDTA
(§18) (Gibco, 15400054) solution was added and treated for five minutes.
(§19) detach from the bottom under an inverted microscope (Zeiss Primovert, Germany), medium containing
(§20) 10% FBS was added. After centrifugation at 300 g for 5 minutes and discarding the medium, 1 mL of
(§21) medium was added and the cells were seeded into 96-well culture dishes as 1x10^4 cells in 100 μL per
(§22) Cell Counting Kit 8 (CCK8; Medchem, 146436) was used to determine cell viability. After adding 20 μL
(§23) of CCK8 solution to each well in the dark, 96-well culture dishes were wrapped with aluminum foil and
(§24) kept in a CO2 incubator at 37 °C for 2 hr. Then, it was automatically read with a microplate reader
(§25) (Chromate) at 450 and 630 nm wavelengths. The following formula was used to determine cell
(§26) % Viability = (Sample Well−Blank) (Negative Control−Blank)×100 (1)
(§27) The half-maximal inhibitory concentration (IC50) was calculated as 50% cell death causing dose
(§28) compared to the control group. All data are given as the mean percent fraction of control ± SEM.
(§29) Statistical analysis was done by one-way analysis of variance (ANOVA), followed by Tukey’s multiple
(§30) comparison tests. IBM SPSS Statistics 22 was used to utilize statistical analysis. […]

[4] = system: mouse fibroblast cells (L929, CCL‐1); assay: Cytotoxicity on healthy cells, CCK8 cell viability; type: cell-based
Source text: as §1, §2, §3, §4, §5, §6, §7, §8, §9, §10, §11, §12, §13, §14, §15, §16, §17, §18, §19, §20, §21, §22, §23, §24, §25, §26, §27, §28, §29, §30

MIC [2] | SMILES | zone of inhibition [1] | zone of inhibition at 50 mg/mL [1] | IC50 at 24 h [3] | IC50 at 48 h [3] | decrease in cell viability ([4]; L929, 24 h, 31.25 μM) | decrease in cell viability ([4]; L929, 24 h, 62.5 μM) | decrease in cell viability ([4]; L929, 24 h, 125 μM) | decrease in cell viability ([4]; L929, 24 h, 250 μM) | decrease in cell viability ([4]; L929, 24 h, 500 μM) | decrease in cell viability ([4]; L929, 48 h, 31.25 μM) | decrease in cell viability ([4]; L929, 48 h, 62.5 μM) | decrease in cell viability ([4]; L929, 48 h, 125 μM) | decrease in cell viability ([4]; L929, 48 h, 250 μM) | decrease in cell viability ([4]; L929, 48 h, 500 μM) | pIC50 ([4]; L929, 24 h, read-out: Cytotoxic activity IC50)
6250 µg/mL (≈ 26.6 mM) | COc1ccc(C=C(C#N)c2ccccc2)cc1 [2a, 3‐(4‐methoxyphenyl)‐2‐phenylacrylonitrile] | 14 ± 0.71 mm | 14 mm | 351 µM | < 31.2 µM | 13% | 19% | 16% | 35% | 73% | 52% | 53% | 55% | 54% | 87% | –
12500 µg/mL (≈ 49.4 mM) | COc1ccc(/C=C(\C#N)c2ccc(F)cc2)cc1 [2b] | 13 ± 0 mm | 13 mm | < 250 µM | < 31.2 µM | 45% | 44% | 43% | 50% | 75% | 52% | 54% | 53% | 53% | 80% | 3.60
2500 µg/mL (≈ 6.73 mM) | COc1ccc(/C=C(\C#N)c2cc(C(F)(F)F)cc(C(F)(F)F)c2)cc1 [2c] | 14 ± 1.41 mm | 14 mm | 410 µM | 391 µM | 8% | 10% | 19% | 12% | 71% | 14% | 16% | 20% | 24% | 80% | –
